Measurements from PubChem BioAssay (NCI).
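Each compound was tested at five concentrations against cells in 96-well plates for 48 hours. GI50 is the concentration that inhibits growth by half. TGI denotes the concentration required for complete inhibition of growth.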

What was measured:
Experiment in all cases: inhibition of tumour cell growth, NCI panel, 48 h
[1] = test system: A549 NSCLC
[2] = test system: HL-60(TB) leukemia
[3] = test system: LOX IMVI melanoma
[4] = test system: OVCAR-3 ovarian
[5] = test system: HOP-92 NSCLC
[6] = test system: CCRF-CEM leukemia
[7] = test system: SK-MEL-5 melanoma
[8] = test system: SK-MEL-28 melanoma
[9] = test system: DU-145 prostate
[10] = test system: A498 renal

SMILES	TGI [1] [µM]	TGI [2] [µM]	TGI [3] [µM]	TGI [4] [µM]	TGI [5] [µM]	TGI [6] [µM]	TGI [7] [µM]	TGI [8] [µM]	GI50 [1] [µM]	GI50 [3] [µM]	GI50 [4] [µM]	GI50 [5] [µM]	GI50 [6] [µM]	GI50 [7] [µM]	GI50 [9] [µM]	TGI [9] [µM]	GI50 [8] [µM]	GI50 [10] [µM]	TGI [10] [µM]	GI50 [2] [µM]
CC(=O)NNc1nc(C)c(C(=O)NNC(=O)C(=O)Nc2ccc(Cl)cc2Cl)s1	> 100	99.2	> 100	50.5	70.9	56.2	> 100	> 100	–	–	–	–	–	–	–	–	–	–	–	–
N=c1c2c(=N)n3c(nc2nc2n1-c1ccccc1Sc1ccccc1-2)sc1cc(Cl)ccc13	> 100	–	14.6	4.24	4.15	> 100	4	13.6	2.25	2.7	1.12	0.517	2.59	1.12	3.55	> 100	2.65	1.79	6.33	–
COC(=O)C=Cc1ccc2nncnc2c1 (mixture of isomers)	56.4	> 100	> 100	> 100	–	> 100	20.8	> 100	–	–	–	–	–	–	–	> 100	–	–	> 100	–
CC(SC(=O)Nc1ccc(N=Nc2ccccc2)cc1)C(=O)O (stereo not drawn)	> 100	> 100	> 100	> 100	–	> 100	–	> 100	–	–	–	–	–	–	–	–	–	–	> 100	–
CC(=O)C1=C(O)C2C3c4c[nH]c5cccc(c45)CC3C(C)(C)N2C1=O (stereo not drawn)	> 100	9.85	67.3	74.3	> 100	> 100	27.2	> 100	–	–	–	–	–	–	–	–	–	–	98.2	–
CCOc1ccc(NC(=O)CC2C(=O)Nc3ccccc3S2(=O)=O)cc1 (stereo not drawn)	> 100	> 100	> 100	> 100	55.5	–	–	> 100	–	–	–	–	–	–	–	–	–	–	> 100	–
O=S(=O)(c1cnccc1N1CCN(CCO)CC1)N1CCCC1	> 100	> 100	> 100	> 100	> 100	–	> 100	> 100	–	–	–	–	–	–	–	> 100	–	–	> 100	–
NC(=O)NC1C(C(N)=O)N(Cc2ccccc2)C(=O)N1Cc1ccccc1 (stereo not drawn)	> 100	> 100	> 100	> 100	> 100	> 100	> 100	> 100	–	–	–	–	–	–	–	–	–	–	–	–
Cc1ccc(S(=O)(=O)N/N=C(/c2nc3ccc([N+](=O)[O-])cc3[nH]c2=O)C(O)c2ccc(C(O)/C(=N\NS(=O)(=O)c3ccc(C)cc3)c3nc4ccc([N+](=O)[O-])cc4[nH]c3=O)cc2)cc1 (stereo not drawn)	> 100	98.3	> 100	> 100	> 100	> 100	> 100	> 100	–	–	–	–	–	–	–	–	–	–	> 100	–
O=C1c2ccccc2C(=O)c2c(OCCOCCO)cccc21	> 100	> 100	> 100	> 100	96.9	–	> 100	> 100	–	–	–	–	–	–	–	> 100	–	–	–	–
Brc1ccc2ns[s+]c2c1	> 100	> 100	> 100	> 100	95	> 100	> 46.7	> 100	–	–	–	–	–	–	–	–	–	–	> 100	–
CC(=O)NC(CC(C)C)C(=O)NC(Cc1ccccc1)C(=S)N1CCCC1 (stereo not drawn)	> 100	> 100	> 100	> 100	> 100	> 100	> 100	> 100	–	–	–	–	–	–	–	–	–	–	> 100	–
CC(C)(C)C(C#N)(C#N)c1ccc(C(C#N)(C#N)C(C)(C)C)nn1	> 100	> 100	> 100	> 100	> 100	> 100	> 100	> 100	–	–	–	–	–	–	–	–	–	–	–	–
CN1CSC(=S)N(Cc2ccccc2)C1	> 100	97.3	11.6	15	–	> 100	26.1	41	30.2	2.75	3.96	–	18	13.1	2.05	6.21	18.4	0.017	31.2	4.03
CC1=C(C(=O)Nc2cc(F)c(F)cc2F)C(c2ccc([N+](=O)[O-])cc2)C(C(=O)Nc2cc(F)c(F)cc2F)=C(C)N1	> 100	35.7	> 100	80.8	42.2	78.7	> 100	> 100	–	–	–	–	–	–	–	–	–	–	87.1	–
O=C(NNc1ccccc1)/C(=C/c1ccc2c(c1)OCO2)NC(=O)c1ccccc1	> 100	> 100	> 100	> 100	> 100	> 100	> 100	> 100	–	–	–	–	–	–	–	–	–	–	> 100	–
CN(C)CCNC(=O)c1cccc2c1Oc1c(cccc1[N+](=O)[O-])O2	3.42	> 100	10.5	13.1	–	16.4	3.24	7.87	–	–	–	–	–	–	–	5.37	–	–	4.78	–
O=P(O)(O)C1(P(=O)(O)O)CC1	> 100	–	> 100	> 100	–	> 100	> 100	> 100	–	–	–	–	–	–	–	–	–	–	> 100	–
NC(=S)c1c(N)n(C2OC(CO)C(O)C2O)c2ncnc(N)c12 (stereo not drawn)	> 100	0.407	–	1.2	3.43	0.773	2.05	1.81	0.301	–	0.287	0.302	0.241	0.162	0.278	> 100	0.295	0.211	0.522	0.135
COc1ccc(/C=C/C(=O)c2sc(-n3nc(-c4ccccc4)cc3-c3ccccc3)nc2C)cc1	> 100	–	> 100	> 100	–	> 100	> 100	> 100	> 100	> 100	–	–	> 100	–	–	–	> 100	> 100	> 100	–
CCCCCCC[CH2][Sn]1([CH2]CCCCCCC)[O]C(=O)c2cccnc2[O]1	> 100	> 100	> 100	> 100	> 100	> 100	> 100	> 100	> 100	> 100	> 100	> 100	> 100	> 100	–	–	> 100	> 100	> 100	> 100
